From patent US7659293B2, “α-Amino-N-hydroxy-acetamide derivatives” (Novartis AG, priority 2001, dated 2010)
Where a name gives a salt, the structure may show the parent alone.

Target: T1, MMP1 (collagenase 1) (Homo sapiens, UniProt P03956)
T1 construct: made in house; host or cells: mouse C127 cells, vector pBPV-MMT, secreted into culture medium
T1 sequence (P03956 100-469): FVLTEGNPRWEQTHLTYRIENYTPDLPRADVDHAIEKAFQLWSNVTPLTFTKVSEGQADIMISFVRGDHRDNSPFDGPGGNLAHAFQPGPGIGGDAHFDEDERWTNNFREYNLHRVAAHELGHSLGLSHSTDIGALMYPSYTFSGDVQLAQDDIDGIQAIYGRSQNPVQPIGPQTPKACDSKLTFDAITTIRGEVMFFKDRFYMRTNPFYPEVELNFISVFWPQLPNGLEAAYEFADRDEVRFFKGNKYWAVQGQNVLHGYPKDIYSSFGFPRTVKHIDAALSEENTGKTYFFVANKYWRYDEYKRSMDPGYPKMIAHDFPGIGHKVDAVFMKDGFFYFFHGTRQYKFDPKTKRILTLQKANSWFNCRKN
Assay: MMP1 (collagenase 1) fluorogenic substrate inhibition assay
Format: biochemical
Conditions: mean ± SEM of three independent experiments
Experimental: The inhibitory activities of compounds of formula I on MT1-MMP, MMP1 (collagenase 1) and MMP2 (gelatinase A) can be determined as follows:
Stock solutions of substrate (MCA-Pro-Leu-Gly-Leu-Dpa-Ala-Arg-NH2 (SEQ ID NO: 1), C. G. Knight, et al, FEBS lett., 296, 263-266, (1992)), are prepared in 100% DMSO at a concentration 1.0 mM.
Stock solutions of inhibitors are prepared in 100% DMSO. The inhibitor is diluted into the assays from a solution in 100% DMSO, and controls substitute an equal volume of DMSO so that the final DMSO concentration from inhibitor and substrate dilutions in all assays is 6.0%. Assays are performed in assay buffer (150 mM NaCl, 10 mM CaCl2, 50 mM Tris-Cl pH7.5, 0.05% Brij-35) containing 6.0% DMSO once the substrate and inhibitor are diluted into it. […] The fluorescence changes are monitored using an excitation wavelength of 320 nm and an emission wavelength of 340 nm. […] The reaction mixture is preincubated with the inhibitor for 30 min, the reaction is started by the addition of MMP enzyme and the fluorescence intensity is measured for 10 min. […]
C127 cells (ATCC-mouse mammary tumor cell line) are grown in Dulbecco's Modified Essential Medium supplemented with 10% heat inactivated fetal bovine serum and 1× antibiotic-antimycotic solution at 37° C. in a humidified CO2 incubator. […] Media from selected clones are analyzed for collagenase expression by an enzymatic assay. […]

Structure (SMILES): CN(C)c1ccc(CN(CC(=O)NO)S(=O)(=O)c2ccc(OCC3CC3)cc2)cc1 [Example 2, 2-[(4-Cyclopropylmethoxy-benzenesulfonyl)-(4-dimethylamino-benzyl-amino]-N-hydroxy-acetamide HCl salt]
- IC50: 1770 ± 144 nM
